For one experiment, the target named is p70S6K (Homo sapiens, UniProt P23443). The experiment can be described thus: Luciferase-coupled chemiluminescence kinase assay (ATP consumption). Type of experiment: biochemical. Here is the method:
(§1) One measure of inhibition is Ki. […] The Ki for a compound is determined from the IC50 based on three assumptions. First, only one compound molecule binds to the enzyme and there is no cooperativity. […] Third, the enzymatic rate of the enzyme-inhibitor complex is zero. The rate data (i.e. compound concentration) are fitted to the equation: […]
(§2) Luciferase-Coupled Chemiluminescence Assay Protocol
(§3) Kinase activity is measured as the percent of ATP consumed following the kinase reaction using luciferase-luciferin-coupled chemiluminescence. Reactions were conducted in 384-well white, medium binding microtiter plates (Greiner). Kinase reactions were initiated by combining test compounds, ATP and kinase in a 20 uL volume. The reaction mixture was incubated at ambient temperature for 3 hrs. For p70S6K and/or AktK, 2.5-5 nM of the enzyme was pre-incubated with compound in 20 mM Tris pH 7.5, 10 mM MgCl2, 0.03% TX-100, and 1 mM DTT for 30 minutes at room temperature. Following the kinase reaction, a 20 μL aliquot of luciferase-luciferin mix was added and the chemiluminescence signal measured using a Victor^2 plate reader (Perkin Elmer). The luciferase-luciferin mix contained 50 mM HEPES, pH 7.8, 67 mM oxalic acid (pH 7.8), 5 (or 50) mM DTT, 0.4% Triton X-100, 0.25 mg/mL coenzyme A, 63 μM AMP, 28 μg/1 mL luciferin and 40,000 units/mL luciferase. Total ATP consumption was limited to 25-60% and the IC50 values correlate well with those determined by radiometric assays.

The target of another experiment is AktK (Homo sapiens, UniProt P31749). The description is as above. Type of experiment: biochemical. The note with it: read-out: AKT-1 IC50. Here is the method:
as §1, §2, §3

Where two headings read alike, the source gives them in different places.

p70S6K, sequence (P23443 whole entry): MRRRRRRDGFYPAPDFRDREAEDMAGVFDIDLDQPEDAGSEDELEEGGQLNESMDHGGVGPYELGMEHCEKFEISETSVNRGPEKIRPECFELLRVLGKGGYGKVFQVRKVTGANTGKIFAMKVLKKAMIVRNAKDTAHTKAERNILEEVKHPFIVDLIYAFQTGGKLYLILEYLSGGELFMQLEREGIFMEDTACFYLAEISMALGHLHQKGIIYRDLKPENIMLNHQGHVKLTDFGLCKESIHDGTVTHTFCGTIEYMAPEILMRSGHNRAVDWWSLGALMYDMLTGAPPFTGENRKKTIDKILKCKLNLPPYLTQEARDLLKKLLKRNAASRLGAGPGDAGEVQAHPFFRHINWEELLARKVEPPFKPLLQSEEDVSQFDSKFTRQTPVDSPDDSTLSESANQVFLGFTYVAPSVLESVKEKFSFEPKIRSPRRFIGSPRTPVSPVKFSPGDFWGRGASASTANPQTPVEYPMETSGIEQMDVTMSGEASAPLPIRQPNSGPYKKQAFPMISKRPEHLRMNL
AktK, sequence (P31749 whole entry): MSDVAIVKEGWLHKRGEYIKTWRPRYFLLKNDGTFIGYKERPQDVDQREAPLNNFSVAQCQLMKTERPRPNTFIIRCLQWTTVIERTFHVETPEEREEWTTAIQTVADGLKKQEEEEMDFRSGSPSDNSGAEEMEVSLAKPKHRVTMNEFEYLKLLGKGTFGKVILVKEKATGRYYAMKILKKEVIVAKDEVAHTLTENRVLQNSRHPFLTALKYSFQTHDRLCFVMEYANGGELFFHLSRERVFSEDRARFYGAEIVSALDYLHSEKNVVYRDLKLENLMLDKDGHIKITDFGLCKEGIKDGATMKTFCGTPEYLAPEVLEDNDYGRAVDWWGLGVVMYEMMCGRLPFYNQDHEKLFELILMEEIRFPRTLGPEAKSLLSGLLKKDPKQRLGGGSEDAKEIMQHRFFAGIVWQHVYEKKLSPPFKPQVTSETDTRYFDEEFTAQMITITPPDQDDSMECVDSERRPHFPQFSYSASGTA

For the molecule `Cc1c(NCCN2CCCC2)cc(C(=O)c2ccccc2)cc1N1CCN(c2ncnc3[nH]nc(Br)c23)CC1` [Entry 236, {3-[4-(3-bromo-1H-pyrazolo[3,4-d]pyrimidin-4-yl)piperazin-1-yl]-4-methyl-5-[(2-pyrrolidin-1-ylethyl)amino]phenyl}(phenyl)methanone], the half-inhibitory concentration (IC50) against p70S6K (Table 1, class symbols per key) was below 100 nM; at AktK (Table 1, class symbols per key), below 100 nM.

As for `CCc1n[nH]c2ncnc(N3CCN(c4cc(C(F)(F)F)ccn4)CC3)c12` [Entry 116, 3-ethyl-4-{4-[4-(trifluoromethyl)pyridin-2-yl]piperazin-1-yl}-1H-pyrazolo[3,4-d]pyrimidine], the IC50 at p70S6K (Table 1, class symbols per key) was 100 to 1000 nM; on AktK (Table 1, class symbols per key) it was at least 10000 nM.

Take `Cc1c(NCCN2CCCC2)cc(C(=O)CCC(F)(F)F)cc1N1CCN(c2ncnc3[nH]nc(Br)c23)CC1` [Entry 274, 1-{3-[4-(3-bromo-1H-pyrazolo[3,4-d]pyrimidin-4-yl)piperazin-1-yl]-4-methyl-5-[(2-pyrrolidin-1-ylethyl)amino]phenyl}-4,4,4-trifluorobutan-1-one]: the concentration for half-maximal inhibition (IC50) against p70S6K (Table 1, class symbols per key) was below 100 nM; on AktK (Table 1, class symbols per key), below 100 nM.

In the case of `Cc1ccc(C(=O)NCCN(C)C)cc1N1CCN(c2ncnc3[nH]nc(Br)c23)CC1` [Entry 213, 3-[4-(3-bromo-1H-pyrazolo[3,4-d]pyrimidin-4-yl)piperazin-1-yl]-N-[2-(dimethylamino)ethyl]-4-methylbenzamide], the IC50 was below 100 nM on p70S6K (Table 1, class symbols per key) and 1000 to 10000 nM at AktK (Table 1, class symbols per key).

`CCCCC(=O)c1cc(NCCN2CCCC2)c(C)c(N2CCN(c3ncnc4[nH]nc(Br)c34)CC2)c1` [Entry 228, 1-{3-[4-(3-bromo-1H-pyrazolo[3,4-d]pyrimidin-4-yl)piperazin-1-yl]-4-methyl-5-[(2-pyrrolidin-1-ylethyl)amino]phenyl}pentan-1-one]: the IC50 on p70S6K (Table 1, class symbols per key) is below 100 nM; at AktK (Table 1, class symbols per key) it was below 100 nM.

For the molecule `Cc1c(NCCN2CCCC2)cc(C(=O)N(C)C)cc1N1CCN(c2ncnc3[nH]nc(Br)c23)CC1` [Entry 198, 3-[4-(3-bromo-1H-pyrazolo[3,4-d]pyrimidin-4-yl)piperazin-1-yl]-N,N,4-trimethyl-5-[(2-pyrrolidin-1-ylethyl)amino]benzamide], the IC50 was below 100 nM on p70S6K (Table 1, class symbols per key) and 100 to 1000 nM on AktK (Table 1, class symbols per key).

As for `N#Cc1ccc(N2CCN(c3ncnc4[nH]nc(Br)c34)CC2)cc1` [Entry 123, 4-[4-(3-bromo-1H-pyrazolo[3,4-d]pyrimidin-4-yl)piperazin-1-yl]benzonitrile], the IC50 was below 100 nM at p70S6K (Table 1, class symbols per key) and at least 10000 nM at AktK (Table 1, class symbols per key).

In the case of `CCc1n[nH]c2ncnc(N3CCN(c4ncccc4C(N)=O)CC3)c12` [Entry 115, 2-[4-(3-ethyl-1H-pyrazolo[3,4-d]pyrimidin-4-yl)piperazin-1-yl]pyridine-3-carboxamide], the IC50 against p70S6K (Table 1, class symbols per key) was 100 to 1000 nM; at AktK (Table 1, class symbols per key) it was at least 10000 nM.

`Cc1ccc(Cl)cc1N1CCN(c2ncnc3[nH]nc(Cc4ccccc4)c23)CC1` [Entry 354, 4-[4-(5-chloro-2-methylphenyl)piperazin-1-yl]-3-(phenylmethyl)-1H-pyrazolo[3,4-d]pyrimidine]: the IC50 is 100 to 1000 nM against p70S6K and 1000 to 10000 nM on AktK.

Consider `CCc1n[nH]c2ncnc(N3CCN(c4cccc(Cl)c4)CC3)c12` [Entry 333, 4-[4-(3-chlorophenyl)piperazin-1-yl]-3-ethyl-1H-pyrazolo[3,4-d]pyrimidine], for which the concentration for half-maximal inhibition (IC50) against p70S6K is below 100 nM; at AktK, 1000 to 10000 nM.

`CC(=O)Nc1ccc(-c2n[nH]c3ncnc(N4CCN(c5cc(Cl)ccc5C)CC4)c23)cc1` [Entry 342, N-(4-{4-[4-(5-chloro-2-methylphenyl)piperazin-1-yl]-1H-pyrazolo[3,4-d]pyrimidin-3-yl}phenyl)acetamide]: the IC50 lay within 100 to 1000 nM at p70S6K and 1000 to 10000 nM on AktK.

Take `Cc1c(CCCN2CCCC2)cc(OCC(C)C)cc1N1CCN(c2ncnc3[nH]nc(Br)c23)CC1` [Entry 240, 3-bromo-4-{4-[2-methyl-5-[(2-methylpropyl)oxy]-3-(3-pyrrolidin-1-ylpropyl)phenyl]piperazin-1-yl}-1H-pyrazolo[3,4-d]pyrimidine]: the IC50 on p70S6K (Table 1, class symbols per key) was below 100 nM; on AktK (Table 1, class symbols per key), below 100 nM.

As for `CCc1n[nH]c2ncnc(N3CCN(c4cc(Cl)cc(OCCCN5CCN(C)CC5)c4C)CC3)c12` [Entry 36, 4-[4-(5-chloro-2-methyl-3-{[3-(4-methylpiperazin-1-yl)propyl]oxy}phenyl)piperazin-1-yl]-3-ethyl-1H-pyrazolo[3,4-d]pyrimidine], the IC50 at p70S6K (Table 1, class symbols per key) is below 100 nM; at AktK (Table 1, class symbols per key), 100 to 1000 nM.

As for `CCc1n[nH]c2ncnc(N3CCN(c4cc(Cl)cc(CCCN5CCCC5)c4C)CC3)c12` [Entry 403, 4-{4-[5-chloro-2-methyl-3-(3-pyrrolidin-1-ylpropyl)phenyl]piperazin-1-yl}-3-ethyl-1H-pyrazolo[3,4-d]pyrimidine], the IC50 against p70S6K is below 100 nM; at AktK it was 100 to 1000 nM.

As for `Cc1ccc(-c2cccc(F)c2OCCN2CCCC2)cc1N1CCN(c2ncnc3[nH]nc(Br)c23)CC1` [Entry 282, 3-bromo-4-(4-{3′-fluoro-4-methyl-2′-[(2-pyrrolidin-1-ylethyl)oxy]biphenyl-3-yl}piperazin-1-yl)-1H-pyrazolo[3,4-d]pyrimidine], the IC50 against p70S6K (Table 1, class symbols per key) was below 100 nM; on AktK (Table 1, class symbols per key), below 100 nM.

Regarding `FC(F)(F)c1cccnc1N1CCN(c2ncnc3[nH]nc(Br)c23)CC1` [Entry 135, 3-bromo-4-{4-[3-(trifluoromethyl)pyridin-2-yl]piperazin-1-yl}-1H-pyrazolo[3,4-d]pyrimidine], the IC50 is 100 to 1000 nM against p70S6K (Table 1, class symbols per key) and at least 10000 nM on AktK (Table 1, class symbols per key).

On to `Cc1c(CCCN2CCCC2)cc(Cl)cc1N1CCN(c2ncnc3[nH]nc(/C=C/C(=O)O)c23)CC1` [Entry 181, (2E)-3-(4-{4-[5-chloro-2-methyl-3-(3-pyrrolidin-1-ylpropyl)phenyl]piperazin-1-yl}-1H-pyrazolo[3,4-d]pyrimidin-3-yl)prop-2-enoic acid], for which the IC50 was below 100 nM against p70S6K (Table 1, class symbols per key) and below 100 nM on AktK (Table 1, class symbols per key).

On to `Cc1c(NCCN(C)C)cc(Cl)cc1N1CCN(c2ncnc3[nH]nc(Br)c23)CC1` [Entry 148, N′-{3-[4-(3-bromo-1H-pyrazolo[3,4-d]pyrimidin-4-yl)piperazin-1-yl]-5-chloro-2-methylphenyl}-N,N-dimethylethane-1,2-diamine], for which the IC50 against p70S6K (Table 1, class symbols per key) was below 100 nM; on AktK (Table 1, class symbols per key), below 100 nM.

In the case of `FC(F)(F)c1ccccc1N1CCN(c2ncnc3[nH]nc(Br)c23)CC1` [Entry 151, 3-bromo-4-{4-[2-(trifluoromethyl)phenyl]piperazin-1-yl}-1H-pyrazolo[3,4-d]pyrimidine], the IC50 at p70S6K (Table 1, class symbols per key) is 100 to 1000 nM; at AktK (Table 1, class symbols per key) it was at least 10000 nM.

For `Cc1c(NCCN2CCCC2)cc(OCC(C)C)cc1N1CCN(c2ncnc3[nH]nc(Br)c23)CC1` [Entry 184, 3-[4-(3-bromo-1H-pyrazolo[3,4-d]pyrimidin-4-yl)piperazin-1-yl]-2-methyl-5-[(2-methyl-propyl)oxy]-N-(2-pyrrolidin-1-ylethyl)aniline], the 50% inhibitory concentration (IC50) on p70S6K (Table 1, class symbols per key) is below 100 nM; at AktK (Table 1, class symbols per key), below 100 nM.

As for `Cc1c(CCC[n+]2ccccc2)cc(-c2ccccc2)cc1N1CCN(c2ncnc3[nH]nc(Br)c23)CC1` [Entry 232, 1-(3-{5-[4-(3-bromo-1H-pyrazolo[3,4-d]pyrimidin-4-yl)piperazin-1-yl]-4-methylbiphenyl-3-yl}propyl)pyridinium], the IC50 was below 100 nM against p70S6K (Table 1, class symbols per key) and below 100 nM on AktK (Table 1, class symbols per key).

As for `CCc1n[nH]c2ncnc(N3CCCN(c4cccc(Cl)c4)CC3)c12` [Entry 343, 4-[4-(3-chlorophenyl)-1,4-diazepan-1-yl]-3-ethyl-1H-pyrazolo[3,4-d]pyrimidine], the IC50 is 100 to 1000 nM on p70S6K and at least 10000 nM on AktK.

Turning to `CON(C)C(=O)c1cc(NCCN2CCCC2)c(C)c(N2CCN(c3ncnc4[nH]nc(Br)c34)CC2)c1` [Entry 249, 3-[4-(3-bromo-1H-pyrazolo[3,4-d]pyrimidin-4-yl)piperazin-1-yl]-N,4-dimethyl-N-(methyloxy)-5-[(2-pyrrolidin-1-ylethyl)amino]benzamide], the IC50 against p70S6K (Table 1, class symbols per key) was below 100 nM; on AktK (Table 1, class symbols per key) it was 100 to 1000 nM.

Consider `Cc1c(NCCN2CCCC2)cc(OCC2CC2(F)F)cc1N1CCN(c2ncnc3[nH]nc(Br)c23)CC1` (stereo not shown) [Entry 270, 3-[4-(3-bromo-1H-pyrazolo[3,4-d]pyrimidin-4-yl)piperazin-1-yl]-5-{[(2,2-difluorocyclopro-pyl)methyl]oxy}-2-methyl-N-(2-pyrrolidin-1-ylethyl)aniline], for which the IC50 was below 100 nM against p70S6K (Table 1, class symbols per key) and below 100 nM on AktK (Table 1, class symbols per key).

Take `Cc1ccc(-c2ccccc2OCCN2CCOCC2)cc1N1CCN(c2ncnc3[nH]nc(Br)c23)CC1` [Entry 279, 3-bromo-4-(4-{4-methyl-2′-[(2-morpholin-4-ylethyl)oxy]biphenyl-3-yl}piperazin-1-yl)-1H-pyrazolo[3,4-d]pyrimidine]: the half-maximal inhibitory concentration (IC50) on p70S6K (Table 1, class symbols per key) was below 100 nM; on AktK (Table 1, class symbols per key), below 100 nM.

`Cc1ccc(N2CCN(c3ncnc4[nH]nc(Br)c34)CC2)cc1C` [Entry 96, 3-bromo-4-[4-(3,4-dimethylphenyl)piperazin-1-yl]-1H-pyrazolo[3,4-d]pyrimidine]: the IC50 against p70S6K (Table 1, class symbols per key) was 100 to 1000 nM; on AktK (Table 1, class symbols per key), at least 10000 nM.

The values are drawn from patent publication US8076338B2, “Kinase modulators and methods of use” (Exelixis, Inc., priority 2004, dated 2011).
